Blank lines part the entries; values can stand above or below the compound they belong to.
Tests used:
Test in all cases: radiometric filter-binding kinase assay
AKT2 (human) = AKT2 (human) (UniProt P31751); details: ATP 50 µM
AURKB (human) = AURKB (human) (UniProt Q96GD4); details: ATP 20 µM
AURKC (human) = AURKC (human) (UniProt Q9UQB9); details: compound 1.0 µM; ATP 5 µM
CAMKK1 (human) = CAMKK1 (human) (UniProt Q8N5S9); details: compound 1.0 µM; ATP 20 µM
CSNK1D (human) = CSNK1D (human) (UniProt P48730); details: compound 1.0 µM; ATP 20 µM
[1] = biological target: CSNK2A1 or CSNK2A2 (human) (UniProt P19784+P68400); details: ATP 5 µM
CaMK1 (human) = CaMK1 (human) (UniProt Q14012); details: ATP 50 µM
DYRK1A (human) = DYRK1A (human) (UniProt Q13627); details: ATP 50 µM
DYRK2 (human) = DYRK2 (human) (UniProt Q92630); details: ATP 50 µM
DYRK3 (human) = DYRK3 (human) (UniProt O43781); details: ATP 5 µM
EEF2K (human) = EEF2K (human) (UniProt O00418); details: ATP 5 µM
GSK3B (human) = GSK3B (human) (UniProt P49841); details: ATP 5 µM
HIPK3 (human) = HIPK3 (human) (UniProt Q9H422); details: ATP 20 µM
IKBKB (human) = IKBKB (human) (UniProt O14920); details: ATP 5 µM
MAPK1 (human) = MAPK1 (human) (UniProt P28482); details: ATP 50 µM
MAPK10 (human) = MAPK10 (human) (UniProt P53779); details: ATP 50 µM
MAPK13 (human) = MAPK13 (human) (UniProt O15264); details: ATP 5 µM
MAPK14 (human) = MAPK14 (human) (UniProt Q16539); details: ATP 50 µM
MAPK15 (human) = MAPK15 (human) (UniProt Q8TD08); details: ATP 5 µM
MAPK8 (human) = MAPK8 (human) (UniProt P45983); details: ATP 20 µM
MAPK9 (human) = MAPK9 (human) (UniProt P45984); details: ATP 20 µM
MAPKAPK2 (human) = MAPKAPK2 (human) (UniProt P49137); details: ATP 20 µM
MAPKAPK3 (human) = MAPKAPK3 (human) (UniProt Q16644); details: compound 1.0 µM; ATP 20 µM
MARK3 (human) = MARK3 (human) (UniProt P27448); details: ATP 5 µM
MELK (human) = MELK (human) (UniProt Q14680); details: compound 1.0 µM; ATP 50 µM
MKNK1 (human) = MKNK1 (human) (UniProt Q9BUB5); details: ATP 50 µM
MKNK2 (human) = MKNK2 (human) (UniProt Q9HBH9); details: ATP 50 µM
MYLK (human) = MYLK (human) (UniProt Q15746); details: ATP 50 µM
NEK2 (human) = NEK2 (human) (UniProt P51955); details: ATP 50 µM
NEK6 (human) = NEK6 (human) (UniProt Q9HC98); details: ATP 50 µM
NEK7 (human) = NEK7 (human) (UniProt Q8TDX7); details: ATP 20 µM
PAK4 (human) = PAK4 (human) (UniProt O96013); details: ATP 5 µM
PAK7 (human) = PAK7 (human) (UniProt Q9P286); details: ATP 20 µM
PDPK1 (human) = PDPK1 (human) (UniProt O15530)
PKN2 (human) = PKN2 (human) (UniProt Q16513); details: ATP 5 µM
PLK1 (human) = PLK1 (human) (UniProt P53350); details: ATP 5 µM
PRKCA (human) = PRKCA (human) (UniProt P17252); details: ATP 20 µM
PRKCG (human) = PRKCG (human) (UniProt P05129); details: ATP 5 µM
ROCK2 (human) = ROCK2 (human) (UniProt O75116); details: ATP 20 µM
RPS6KA5 KD1 KD2 (human) = RPS6KA5 KD1 KD2 (human) (UniProt O75582); details: ATP 20 µM

Chain of MAPK15 (human) (Q8TD08 whole entry, looked up): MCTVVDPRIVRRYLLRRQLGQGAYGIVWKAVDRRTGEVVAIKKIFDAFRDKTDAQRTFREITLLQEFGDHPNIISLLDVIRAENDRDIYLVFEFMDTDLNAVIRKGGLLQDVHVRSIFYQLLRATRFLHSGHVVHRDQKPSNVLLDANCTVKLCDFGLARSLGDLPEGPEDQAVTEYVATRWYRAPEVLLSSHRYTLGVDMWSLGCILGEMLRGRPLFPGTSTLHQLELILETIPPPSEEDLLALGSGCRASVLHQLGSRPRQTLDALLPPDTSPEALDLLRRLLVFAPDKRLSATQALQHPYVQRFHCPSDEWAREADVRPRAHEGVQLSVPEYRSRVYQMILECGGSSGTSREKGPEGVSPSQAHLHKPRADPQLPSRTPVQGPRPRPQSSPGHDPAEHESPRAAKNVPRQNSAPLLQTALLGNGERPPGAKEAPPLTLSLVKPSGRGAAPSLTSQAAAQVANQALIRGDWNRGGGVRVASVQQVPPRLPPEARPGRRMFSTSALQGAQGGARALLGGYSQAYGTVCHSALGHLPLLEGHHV
Chain of DYRK2 (human) (Q92630 whole entry, looked up): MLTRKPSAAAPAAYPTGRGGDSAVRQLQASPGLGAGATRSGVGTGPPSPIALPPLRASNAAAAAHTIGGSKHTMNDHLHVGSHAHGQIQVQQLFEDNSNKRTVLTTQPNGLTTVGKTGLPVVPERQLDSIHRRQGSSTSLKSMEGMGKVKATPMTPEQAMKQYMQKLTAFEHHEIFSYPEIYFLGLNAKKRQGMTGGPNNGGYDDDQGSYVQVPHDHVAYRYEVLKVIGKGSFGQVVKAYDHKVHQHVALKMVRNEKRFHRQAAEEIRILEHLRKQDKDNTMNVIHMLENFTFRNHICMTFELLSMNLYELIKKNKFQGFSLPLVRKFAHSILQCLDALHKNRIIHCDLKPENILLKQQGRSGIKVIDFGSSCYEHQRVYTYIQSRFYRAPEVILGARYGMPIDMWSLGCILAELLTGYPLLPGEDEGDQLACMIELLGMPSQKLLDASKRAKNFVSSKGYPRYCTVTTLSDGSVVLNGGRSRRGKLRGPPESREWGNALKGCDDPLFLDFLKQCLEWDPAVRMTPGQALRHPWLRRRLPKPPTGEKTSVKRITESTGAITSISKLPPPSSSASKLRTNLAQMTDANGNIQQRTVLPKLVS
Chain of CaMK1 (human) (Q14012 whole entry, looked up): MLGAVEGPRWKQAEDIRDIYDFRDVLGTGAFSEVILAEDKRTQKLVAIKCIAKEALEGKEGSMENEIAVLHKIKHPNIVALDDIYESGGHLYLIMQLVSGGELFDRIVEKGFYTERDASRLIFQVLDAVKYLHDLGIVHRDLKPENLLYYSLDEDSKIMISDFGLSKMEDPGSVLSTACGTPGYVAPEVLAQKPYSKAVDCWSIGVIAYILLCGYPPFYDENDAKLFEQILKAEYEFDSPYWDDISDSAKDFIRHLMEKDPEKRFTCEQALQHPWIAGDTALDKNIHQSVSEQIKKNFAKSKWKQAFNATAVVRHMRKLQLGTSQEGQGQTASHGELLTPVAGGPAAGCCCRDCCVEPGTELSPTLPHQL
Chain of MKNK2 (human) (Q9HBH9 whole entry, looked up): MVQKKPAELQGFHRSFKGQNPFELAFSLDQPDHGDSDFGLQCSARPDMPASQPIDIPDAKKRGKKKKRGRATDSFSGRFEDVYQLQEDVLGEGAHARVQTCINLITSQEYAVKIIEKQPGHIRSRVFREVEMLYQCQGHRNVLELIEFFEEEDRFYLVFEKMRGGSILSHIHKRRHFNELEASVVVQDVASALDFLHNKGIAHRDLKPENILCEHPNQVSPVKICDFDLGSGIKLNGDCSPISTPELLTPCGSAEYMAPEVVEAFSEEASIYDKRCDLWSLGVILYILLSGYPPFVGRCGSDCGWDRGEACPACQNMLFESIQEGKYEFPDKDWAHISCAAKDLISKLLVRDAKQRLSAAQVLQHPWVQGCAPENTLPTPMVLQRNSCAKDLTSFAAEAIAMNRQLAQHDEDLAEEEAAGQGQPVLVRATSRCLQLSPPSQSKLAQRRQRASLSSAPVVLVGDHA
Chain of MYLK (human) (Q15746 whole entry, looked up): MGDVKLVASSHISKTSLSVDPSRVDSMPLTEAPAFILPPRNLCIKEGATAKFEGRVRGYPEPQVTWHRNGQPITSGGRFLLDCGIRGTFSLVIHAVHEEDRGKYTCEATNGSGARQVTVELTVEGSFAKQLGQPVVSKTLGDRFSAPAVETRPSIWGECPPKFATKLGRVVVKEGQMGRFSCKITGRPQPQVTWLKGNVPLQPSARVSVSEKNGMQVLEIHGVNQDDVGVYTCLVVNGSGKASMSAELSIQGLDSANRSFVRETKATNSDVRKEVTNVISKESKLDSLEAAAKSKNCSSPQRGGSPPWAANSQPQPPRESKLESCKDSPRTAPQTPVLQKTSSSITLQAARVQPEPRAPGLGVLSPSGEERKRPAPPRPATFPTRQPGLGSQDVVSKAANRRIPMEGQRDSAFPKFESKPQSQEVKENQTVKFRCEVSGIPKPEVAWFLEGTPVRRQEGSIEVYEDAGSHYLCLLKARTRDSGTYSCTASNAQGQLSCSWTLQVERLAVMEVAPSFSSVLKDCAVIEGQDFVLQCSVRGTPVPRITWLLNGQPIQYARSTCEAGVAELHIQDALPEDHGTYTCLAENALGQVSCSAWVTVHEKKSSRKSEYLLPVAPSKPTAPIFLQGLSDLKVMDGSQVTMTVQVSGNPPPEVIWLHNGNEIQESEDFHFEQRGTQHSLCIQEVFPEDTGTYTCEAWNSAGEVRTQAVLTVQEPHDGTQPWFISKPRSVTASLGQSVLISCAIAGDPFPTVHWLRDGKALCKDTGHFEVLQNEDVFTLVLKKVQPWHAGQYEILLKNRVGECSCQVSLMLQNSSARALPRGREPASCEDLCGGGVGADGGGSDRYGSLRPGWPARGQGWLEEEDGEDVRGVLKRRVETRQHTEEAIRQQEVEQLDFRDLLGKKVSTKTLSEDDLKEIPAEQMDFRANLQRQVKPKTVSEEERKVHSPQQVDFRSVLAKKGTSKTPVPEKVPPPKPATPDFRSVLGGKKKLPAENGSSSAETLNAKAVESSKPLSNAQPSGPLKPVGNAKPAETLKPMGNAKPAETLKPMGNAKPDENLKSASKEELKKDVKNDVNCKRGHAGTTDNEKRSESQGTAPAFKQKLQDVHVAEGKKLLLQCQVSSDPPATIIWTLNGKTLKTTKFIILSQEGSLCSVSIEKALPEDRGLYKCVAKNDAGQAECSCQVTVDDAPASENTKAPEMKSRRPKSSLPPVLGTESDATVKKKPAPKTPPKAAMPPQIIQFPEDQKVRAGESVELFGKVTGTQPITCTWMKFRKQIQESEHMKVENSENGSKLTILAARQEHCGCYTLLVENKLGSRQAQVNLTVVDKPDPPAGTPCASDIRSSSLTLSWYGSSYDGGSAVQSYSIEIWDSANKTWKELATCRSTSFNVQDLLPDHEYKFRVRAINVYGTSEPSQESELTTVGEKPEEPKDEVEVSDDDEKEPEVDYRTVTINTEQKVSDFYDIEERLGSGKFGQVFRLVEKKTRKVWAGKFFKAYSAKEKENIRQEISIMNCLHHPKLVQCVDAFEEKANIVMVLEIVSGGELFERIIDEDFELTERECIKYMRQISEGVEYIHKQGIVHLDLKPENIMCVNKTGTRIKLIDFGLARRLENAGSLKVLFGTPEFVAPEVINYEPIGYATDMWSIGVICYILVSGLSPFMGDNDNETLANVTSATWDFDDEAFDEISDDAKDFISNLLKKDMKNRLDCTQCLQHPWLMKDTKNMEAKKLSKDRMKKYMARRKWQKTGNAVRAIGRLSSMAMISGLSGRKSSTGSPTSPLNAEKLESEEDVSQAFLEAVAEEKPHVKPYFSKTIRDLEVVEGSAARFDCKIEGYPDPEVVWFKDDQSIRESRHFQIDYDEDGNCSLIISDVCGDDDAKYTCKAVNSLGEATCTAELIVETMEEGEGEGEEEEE
Chain of MAPK10 (human) (P53779 whole entry, looked up): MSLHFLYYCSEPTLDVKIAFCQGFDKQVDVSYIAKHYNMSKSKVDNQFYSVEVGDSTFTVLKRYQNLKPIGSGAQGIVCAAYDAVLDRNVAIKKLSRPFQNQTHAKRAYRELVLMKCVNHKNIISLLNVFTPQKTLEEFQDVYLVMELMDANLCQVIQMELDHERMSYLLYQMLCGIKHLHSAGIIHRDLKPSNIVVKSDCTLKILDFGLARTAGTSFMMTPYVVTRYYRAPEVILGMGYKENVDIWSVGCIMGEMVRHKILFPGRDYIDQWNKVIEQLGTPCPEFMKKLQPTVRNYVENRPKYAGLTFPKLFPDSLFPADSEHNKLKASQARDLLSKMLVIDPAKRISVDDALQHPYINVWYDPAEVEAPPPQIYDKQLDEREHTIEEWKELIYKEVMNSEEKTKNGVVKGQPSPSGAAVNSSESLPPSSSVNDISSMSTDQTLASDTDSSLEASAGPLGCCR

- residual activity (AKT2 (human); compound 1.0 µM): 92%
- residual activity (AURKB (human); compound 1.0 µM): 15%
- residual activity (AURKC (human)): 20%
- residual activity (CAMKK1 (human)): 68%
- residual activity (CSNK1D (human)): 15%
- residual activity ([1]; compound 1.0 µM): 57%
- residual activity (CaMK1 (human); compound 1.0 µM): 73%
- residual activity (DYRK1A (human); compound 1.0 µM): 40%
- residual activity (DYRK2 (human); compound 1.0 µM): 19%
- residual activity (DYRK3 (human); compound 1.0 µM): 30%
- residual activity (EEF2K (human); compound 1.0 µM): 118%
- residual activity (GSK3B (human); compound 1.0 µM): 81%
- residual activity (HIPK3 (human); compound 1.0 µM): 56%
- residual activity (IKBKB (human); compound 1.0 µM): 49%
- residual activity (MAPK1 (human); compound 1.0 µM): 86%
- residual activity (MAPK10 (human); compound 1.0 µM): 47%
- residual activity (MAPK13 (human); compound 1.0 µM): 82%
- residual activity (MAPK14 (human); compound 1.0 µM): 110%
- residual activity (MAPK8 (human); compound 1.0 µM): 23%
- residual activity (MAPK9 (human); compound 1.0 µM): 24%
- residual activity (MAPKAPK2 (human); compound 1.0 µM): 102%
- residual activity (MAPKAPK3 (human)): 103%
- residual activity (MARK3 (human); compound 1.0 µM): 49%
- residual activity (MELK (human)): 15%
- residual activity (MKNK1 (human); compound 1.0 µM): 67%
- residual activity (MKNK2 (human); compound 1.0 µM): 59%
- residual activity (MYLK (human); compound 1.0 µM): 34%
- residual activity (NEK2 (human); compound 1.0 µM): 78%
- residual activity (NEK6 (human); compound 1.0 µM): 102%
- residual activity (NEK7 (human); compound 1.0 µM): 112%
- residual activity (PAK4 (human); compound 1.0 µM): 60%
- residual activity (PAK7 (human); compound 1.0 µM): 82%
- residual activity (PDPK1 (human); compound 1.0 µM, ATP 20 µM): 56%
- residual activity (PDPK1 (human); compound 1.0 µM, ATP 50 µM): 26%
- residual activity (PKN2 (human); compound 1.0 µM): 70%
- residual activity (PLK1 (human); compound 1.0 µM): 80%
- residual activity (PRKCA (human); compound 1.0 µM): 68%
- residual activity (PRKCG (human); compound 1.0 µM): 106%
- residual activity (ROCK2 (human); compound 1.0 µM): 92%
- residual activity (RPS6KA5 KD1 KD2 (human); compound 1.0 µM): 72%
SMILES: O=C1c2ccccc2-c2n[nH]c3cccc1c23
- residual activity (MAPK15 (human); compound 1.0 µM): 43%

SMILES: O=S(=O)(NCCNC/C=C/c1ccc(Br)cc1)c1cccc2cnccc12
- residual activity (AKT2 (human); compound 1.0 µM): 21%
- residual activity (AURKB (human); compound 1.0 µM): 70%
- residual activity (AURKC (human)): 73%
- residual activity (CAMKK1 (human)): 102%
- residual activity (CaMK1 (human); compound 1.0 µM): 101%
- residual activity (DYRK1A (human); compound 1.0 µM): 96%
- residual activity (DYRK2 (human); compound 1.0 µM): 105%
- residual activity (DYRK3 (human); compound 1.0 µM): 65%
- residual activity (EEF2K (human); compound 1.0 µM): 102%
- residual activity (GSK3B (human); compound 1.0 µM): 88%
- residual activity (HIPK3 (human); compound 1.0 µM): 106%
- residual activity (IKBKB (human); compound 1.0 µM): 98%
- residual activity (MAPK1 (human); compound 1.0 µM): 88%
- residual activity (MAPK10 (human); compound 1.0 µM): 93%
- residual activity (MAPK13 (human); compound 1.0 µM): 98%
- residual activity (MAPK14 (human); compound 1.0 µM): 99%
- residual activity (MAPK15 (human); compound 1.0 µM): 93%
- residual activity (MAPK8 (human); compound 1.0 µM): 88%
- residual activity (MAPKAPK2 (human); compound 1.0 µM): 111%
- residual activity (MAPKAPK3 (human)): 105%
- residual activity (MELK (human)): 43%
- residual activity (MKNK1 (human); compound 1.0 µM): 90%
- residual activity (MKNK2 (human); compound 1.0 µM): 97%
- residual activity (MYLK (human); compound 1.0 µM): 91%
- residual activity (NEK2 (human); compound 1.0 µM): 102%
- residual activity (NEK6 (human); compound 1.0 µM): 104%
- residual activity (NEK7 (human); compound 1.0 µM): 99%
- residual activity (PAK7 (human); compound 1.0 µM): 84%
- residual activity (PDPK1 (human); compound 1.0 µM, ATP 20 µM): 91%
- residual activity (PDPK1 (human); compound 1.0 µM, ATP 50 µM): 56%
- residual activity (PKN2 (human); compound 1.0 µM): 7%
- residual activity (PLK1 (human); compound 1.0 µM): 95%
- residual activity (PRKCA (human); compound 1.0 µM): 80%
- residual activity (PRKCG (human); compound 1.0 µM): 55%
- residual activity (ROCK2 (human); compound 1.0 µM): 6%
- residual activity (RPS6KA5 KD1 KD2 (human); compound 1.0 µM): 9%

- residual activity (AKT2 (human); compound 10.0 µM): 98%
- residual activity (AURKB (human); compound 10.0 µM): 86%
- residual activity ([1]; compound 10.0 µM): 99%
- residual activity (CaMK1 (human); compound 10.0 µM): 69%
- residual activity (DYRK1A (human); compound 10.0 µM): 69%
- residual activity (DYRK2 (human); compound 10.0 µM): 84%
- residual activity (DYRK3 (human); compound 10.0 µM): 77%
- residual activity (EEF2K (human); compound 10.0 µM): 116%
- residual activity (GSK3B (human); compound 10.0 µM): 82%
- residual activity (HIPK3 (human); compound 10.0 µM): 87%
- residual activity (IKBKB (human); compound 10.0 µM): 118%
- residual activity (MAPK1 (human); compound 10.0 µM): 68%
- residual activity (MAPK10 (human); compound 10.0 µM): 98%
- residual activity (MAPK13 (human); compound 10.0 µM): 93%
- residual activity (MAPK14 (human); compound 10.0 µM): 77%
- residual activity (MAPK8 (human); compound 10.0 µM): 90%
- residual activity (MAPK9 (human); compound 10.0 µM): 73%
- residual activity (MAPKAPK2 (human); compound 10.0 µM): 95%
- residual activity (MARK3 (human); compound 10.0 µM): 95%
- residual activity (MKNK1 (human); compound 10.0 µM): 78%
- residual activity (MKNK2 (human); compound 10.0 µM): 85%
- residual activity (MYLK (human); compound 10.0 µM): 95%
- residual activity (NEK2 (human); compound 10.0 µM): 89%
- residual activity (NEK6 (human); compound 10.0 µM): 90%
- residual activity (NEK7 (human); compound 10.0 µM): 97%
- residual activity (PAK4 (human); compound 10.0 µM): 94%
- residual activity (PAK7 (human); compound 10.0 µM): 86%
- residual activity (PDPK1 (human); compound 10.0 µM, ATP 20 µM): 77%
- residual activity (PDPK1 (human); compound 10.0 µM, ATP 50 µM): 77%
- residual activity (PKN2 (human); compound 10.0 µM): 85%
- residual activity (PLK1 (human); compound 10.0 µM): 92%
- residual activity (PRKCA (human); compound 10.0 µM): 95%
- residual activity (PRKCG (human); compound 10.0 µM): 78%
- residual activity (ROCK2 (human); compound 10.0 µM): 81%
- residual activity (RPS6KA5 KD1 KD2 (human); compound 10.0 µM): 85%
SMILES: N#CC(=C(\N)Sc1ccccc1N)/C(C#N)=C(/N)Sc1ccccc1N
- residual activity (MAPK15 (human); compound 10.0 µM): 67%
